pIC50: −log10 of the molar value. Read-outs that look alike come from different tables or passages of the source.
Columns and labels:
[1] = system: angiogenesis induced by hFGF-B in the CAM; assay: Chick chorioallantoic membrane (CAM) assay, 14C-proline incorporation into collagenous protein; format: in vivo, chick embryo
Protocol: BTO-964 [methyl 3,5-diiodo-4(4'-methoxyphenoxy) benzaldehyde], and BTO-967 [methyl 3,5-diiodo-4(4'-methoxyphenoxy)-thiobenzoate] were tested in the CAm assay. The endpoint of the CAM assay was a quantiative determination of basement membrane biosynthesis by measuring the incorporation of ^14 C-proline into Type IV collagenous protein.
The CAM assay involves the development of live chick embryos in Petri dishes under special sterile conditions. Therefore, only limited numbers of embryos can be used for evaluation of compounds in a single experiment. BTO-964 and BTO-967 was tested in separate assays. A known angiogenesis inhibitor, 2-methoxyestradiol (2-ME), was used as the positive control, and human fibroblast growth factor (hFGF) was used to induce angiogenesis in the CAM.
For testing, a minimum amount of acetone-methanol (1:1) was added to the test compounds for sterilization. The acetone-methanol mixture was then evaporated to dryness in a sterile hood. The compounds were dissolved in dimethyl sulfoxide (DMSO) first and then diluted with saline containing methylcellulose. The final concentrations were 2% DMSO and 0.5% methylcellulose. all test solutions were added to each CAM in […] aliquots.
Fresh fertile eggs were incubated for three days in a standard egg incubator. On Day 3, eggs were cracked under sterile conditions and embryos were placed in 20×100 mm plastic Petri dishes and cultivated at 37° C. in an embryo incubator with a water reservoir on the bottom shelf. Air was continuously bubbled into the water reservoir by using a small pump so that the humidity in the incubator was kept constant. Observations were made daily to ensure that all embryos were healthy. Dead or unhealthy embryos were removed from the incubator immediately to avoid contamination. On Day 9, a sterile silicone ring cup was placed on each CAM and 0.5 mCi of ^14 C-proline with or without the test compound plus 2.5 ng of hFGF dissolved in saline containing 0.5% methylcellulose was delivered into each ring cup in a sterile hood. 2-ME was tested in parallel to serve as a reference compound. After addition of test materials, the embryos were returned to the incubator and cultivation continued. On Day 12, all embryos were transferred to a cold room at 4-10° C.
Using the procedure outlined in Maragoudakis, et al., (1989) J. Pharm. Exp. Ther. 251:679-682, the embryos were placed on ice and a piece of CAM 10 mm in diameter was cut off under each ring cup and placed in a separate tube. To each tube was added 1.0 ml of phosphate-buffered saline (PBS, pH 7.3) containing 0.11 mg cycloheximide and 0.17 mg dipyridyl. The tubes were placed in a boiling water bath for 10 min and then cooled to room temperature. The PBS in each tube was discarded after centrifugation at 3000×G for 10 min. The CAM residue was washed once with 3 ml of 15% TCA and then three times with 3 ml of 5% TCA. Centrifugation was carried out as described above between each washing. At this point all non-protein bound radioactivity was removed, and the CAM containing the newly synthesized ^14 C-collagenous protein was suspended in 0.9 ml of 0.1 N NaOH and 1.1 ml of HEPES buffer at pH 7.4. The pH of the sample was neutralized with 0.8 N HCl, using phenol red as indicator.
To digest the ^14 C-collagenous protein, 7.5 units of collagenase and 500 nmol of calcium chloride in […] of HEPES buffer was added to the above samples, and mixtures were incubated at 37° C. for 4 h. The reaction was stopped by adding 1.0 ml of 20% TCA containing 5 mg of tannic acid into each tube. After vortex mixing, the samples were centrifuged at 3000×G for 10 min. An aliquot of the clear supernatant was taken for scintillation counting to quantitate the radiolabeled tripeptides corresponding to basement membrane collagen and other collagenous materials synthesized by the CAM from ^14 C-proline. The CAM pellets in each tube were solubilized in 0.5 ml of 1.0 N NaOH by boiling in a water bath for 5 min. […]

[2] = system: A549 (non-small cell lung); assay: In vitro cytotoxicity screen, alamar Blue assay; format: cell-based; details: Homo sapiens
Protocol: (§1) Human tumor cell lines were exposed continuously to varying concentrations of test agents, i.e., BTO-956, BTO-964, BTO966 and BTO-967) and the viability of the cells was measured at set time points (1, 3, and 7 days) using the alamar Blue™ assay. […] This fluorescence can be measured with a fluorimeter, whereby the signal is directly proportional to cell number.
(§2) Various tumor cell lines of human origin representing a wide diversity of cancer pheno- and genotypes were exposed in vitro to the agents to evaluate the drug's effective range. Tumor lines screened included MDA MB 231 (breast), MCF-7 (breast), MDA MB 468 (breast), Siha (squamous cell carcinoma), A549 (non-small cell lung), HL-60 (leukemia), Ovcar-3 (ovarian). The test agents were prepared in serial dilutions from 10 mM stock solutions in DMSO yielding a 66-fold dose range of 20 μM, 10 μM, 3 μM, 1 μM and 0.3 μM concentrations. In each case, cells were maintained at 37° C. under 5 percent CO2 in air. All cell lines were incubated in Dulbecco's modified Eagle medium (DMEM) supplemented with 10% heat-inactivated fetal bovine serum and graded doses of BTO-956, 964, 966, or 967. 5-Fluorouracil (5-FU) was included as a positive control in experiments with two of the cell lines. The experiments were conducted in 96-well tissue culture plates (Falcon) with an initial seeding density of 1000 cells per well in 250 μl aliquots. The next day, medium was replaced with 100 μl of drug dilutions in triplicate.
(§3) After a 7 day exposure to the various agents, the alamarBlue dye was diluted to 20% in DMEM, and 100 μl was added to each well. The cells were incubated for 8 hours until obvious color changes indicated sufficient amounts of reduced dye for quantitation. Relative cell number was evaluated by florimetry on a Millipore 2300 CytoFluor fluorescence measurement system. Measurements were taken directly from 96-well plates after excitation at 560 nm with concomitant emission at 590 nm.

MDA MB 231 (breast) = assay: In vitro cytotoxicity screen, alamar Blue assay; format: cell-based; details: Homo sapiens
Protocol: as §1, §2, §3

MCF-7 (breast) = assay: In vitro cytotoxicity screen, alamar Blue assay; format: cell-based; details: Homo sapiens, MCF7, 168 h, 7 days post exposure
Protocol: as §1, §2, §3

MDA MB 468 (breast) = assay: In vitro cytotoxicity screen, alamar Blue assay; format: cell-based; details: Homo sapiens, 168 h, 7 days post exposure
Protocol: as §1, §2, §3

Ovcar-3 (ovarian) = assay: In vitro cytotoxicity screen, alamar Blue assay; format: cell-based; details: Homo sapiens, 168 h, 7 days post exposure
Protocol: as §1, §2, §3

[3] = system: Siha (squamous cell carcinoma); assay: In vitro cytotoxicity screen, alamar Blue assay; format: cell-based; details: Homo sapiens, 168 h, 7 days post exposure
Protocol: as §1, §2, §3

[4] = system: Human leukemia (HL60) cells; assay: In vitro metabolism in human leukemia cells with and without rat liver S9; format: cell-based; details: 4 hr incubation with vs without rat liver S9, cells counted 3 days later (FIG. 2)
Protocol: FIG. 2 illustrates the in vitro metabolism of BTO-956, 964, 966, and 967 in human leukemia cells. In this experiments, human leukemia cells (HL60) were incubated for 4 hours in the presence of BTO-956, BTO-964, BTO-966 or BTO-967, with (closed symbols) and without (open symbols) rat liver microsome fraction S9. Following the 4 hr exposure to drug and S9, the cells were rinsed and replated at a density of 2×10^5 cells per ml, and counted 3 days later.
To test for either of these possibilities, the compounds, i.e., BTO-956, BTO-964, BTO-966 and BTO-967, were incubated with a microsomal enzyme fraction, referred to as S9.
Human leukemia (HL60) cells were used to evaluate drug metabolism. Exposure to the test article was performed in the presence and absence of S9, prepared from the liver of adult male rats given a single intraperitoneal injection of Arachlor 1254 (500 mg/kg). The S9 consisted of the 9000×G supernatant of liver homogenized in 0.25 M sucrose-100 mM phosphate buffer (pH 7.4) (Molecular Toxicology, Inc.). Cofactors were 1 mM NADP and 5 mM sodium isocitrate. On the day of exposure, cultures of cells, with or without the metabolism mixture, were incubated for 4 hours in RPMI containing 5% FBS and graded doses of BTO956, 964, 966, or 967. The test agents were prepared in serial dilutions from 10 mM stock solutions in DMSO yielding a dose range 100 μM, 50 μM, 25 μM, 10 μM and 5 μM concentrations and a final DMSO concentration of 1%. In each case, cells were maintained at 37° C. under 5 percent CO2 in air. The experiments were conducted in 6-well tissue culture plates (Falcon) with an initial seeding density of 2×10^6 cells per well in 2 ml aliquots. The test compounds were added immediately to the medium in duplicate cultures. Treatment solution was removed by a series of low-speed centrifugations to pellet the cells, followed by removal of the supernatant and resuspension of cells in fresh RPMI containing 10% FBS.

TNF-α mRNA [5] = details: 10 μM, without LPS
Protocol: (§4) The murine macrophage PU5-1.8 cell line are purchased from the American Type Culture Collection (ATCC, Rockville, Md.). Cells are grown in DMEM medium supplemented with 100 mM sodium pyruvate, 0.1 mM nonessential amino acids, 2 mM glutamine and 5 % fetal bovine serum (Life Technologies, Staten Island, N.Y.). Cells are maintained in a humidified atmosphere of 5% CO2 -95% air at 37° C. Cells are passaged twice weekly by firmly tapping the side of the flask to dislodge the adherent cells. Both nonadherent and adherent cells are passaged. Exponentially growing cells are seeded at 5×10^5 /mL, 4 mL per 60-mm dish 24 h prior to the experiment. Test compounds are delivered in 1 mL volumes of the medium added to each dish at the start of the experiment. All dishes are incubated at 37° C. in 5% CO2 -95% air for 3 h.
(§5) The Tumor Necrosis Factor (TNF-α) cDNA is obtained from the ATCC (Rockville, Md.). [α-^32 P]-dCTP (250 μCi) and nylon membranes (Hybond N) are obtained from Amersham (Arlington Heights, Ill.). […] Lipopolysaccharide (LPS) from Escherichia coli is purchased from DIFCO Laboratories (Detroit, Mich.). All plastic supplies are purchased from VWR Scientific products (San Francisco, Calif.). […]
(§6) Hybridized bands are quantified by analyzing the images obtained by using a video densitometer (Applied Imaging Corporation, Santa Clara, Calif.). […]

TNF-α mRNA [6] = assay: cells; details: Mus musculus, Macrophage, 3 h, read-out: inhibition of TNF-α mRNA accumulation
Protocol: as §4, §5, §6

[7] = 168 h, A549, 7 days post exposure, read-out: IC50
[8] = 168 h, MDA MB 231, 7 days post exposure, read-out: IC50

## COc1cc2c(cc1O)CC[C@@H]1[C@@H]2CC[C@]2(C)[C@@H](O)CC[C@@H]12 [2-Methoxyestradiol, 2-methoxyestradiol, reference compound]
[1]; 8.3 μg/CAM, BTO-964 experiment
  % Inhibition: 6%
[1]; 8.3 μg/CAM, BTO-964 experiment, control 11200 ± 829
  14C-Proline Incorporated into Collagenous Protein (cpm/mg protein) (mean ± S.E.): 10499 ± 1372 cpm/mg_protein
[1]; 8.3 μg/CAM, BTO-967 experiment
  % Inhibition: 9%
[1]; 8.3 μg/CAM, BTO-967 experiment, control 6300 ± 696
  14C-Proline Incorporated into Collagenous Protein (cpm/mg protein) (mean ± S.E.): 5711 ± 1469 cpm/mg_protein
[1]; 25 μg/CAM, BTO-964 experiment
  % Inhibition: 35%
[1]; 25 μg/CAM, BTO-964 experiment, control 11200 ± 829
  14C-Proline Incorporated into Collagenous Protein (cpm/mg protein) (mean ± S.E.): 7303 ± 1424 cpm/mg_protein
[1]; 25 μg/CAM, BTO-967 experiment
  % Inhibition: 20%
[1]; 25 μg/CAM, BTO-967 experiment, control 6300 ± 696
  14C-Proline Incorporated into Collagenous Protein (cpm/mg protein) (mean ± S.E.): 5068 ± 1609 cpm/mg_protein
[1]; 75 μg/CAM, BTO-964 experiment
  % Inhibition: 38%
[1]; 75 μg/CAM, BTO-964 experiment, control 11200 ± 829
  14C-Proline Incorporated into Collagenous Protein (cpm/mg protein) (mean ± S.E.): 6984 ± 1022 cpm/mg_protein
[1]; 75 μg/CAM, BTO-967 experiment
  % Inhibition: 38%
[1]; 75 μg/CAM, BTO-967 experiment, control 6300 ± 696
  14C-Proline Incorporated into Collagenous Protein (cpm/mg protein) (mean ± S.E.): 3875 ± 891 cpm/mg_protein

## O=c1[nH]cc(F)c(=O)[nH]1 [5-FU, 5-Fluorouracil, reference compound]
[2]; A549, 168 h
  pIC50: 5.26
MDA MB 231 (breast); MDA-MB-231, 168 h
  pIC50: 5.00

## COC(=O)c1cc(I)c(Oc2ccc(OC)cc2)c(I)c1 [BTO-956, methyl 3,5-diiodo-4-(4'-methoxyphenoxy)benzoate]
[2]; [7]
  pIC50: 5.40
MCF-7 (breast)
  pIC50: 5.30
MDA MB 231 (breast); [8]
  pIC50: 5.00
MDA MB 468 (breast)
  pIC50: 6.30
Ovcar-3 (ovarian)
  pIC50: > 6.52
[3]
  pIC50: 6.30
[4]
  effect of metabolism by S9 on activity: metabolized within the 4-hr incubation period to an inactive form

## COCc1cc(I)c(Oc2ccc(OC)cc2)c(I)c1 [BTO-966, 3,5-diiodo-4-(4'-methoxyphenoxy)benzyl methyl ether]
[2]; [7]
  pIC50: < 4.52
MCF-7 (breast)
  pIC50: 5.15
MDA MB 231 (breast); [8]
  pIC50: 5.00
MDA MB 468 (breast)
  pIC50: 5.12
Ovcar-3 (ovarian)
  pIC50: 5.16
[3]
  pIC50: < 4.70
[4]
  effect of metabolism by S9 on activity: activated to more cytotoxic products

## COc1cc2c(c(OC)c1OC)-c1ccc(OC)c(=O)cc1[C@@H](NC(C)=O)CC2 [colchicine, Colchicine]
TNF-α mRNA [5]
  effect on TNF-α mRNA expression: no effect
TNF-α mRNA [6]
  inhibition at 10 µM: 68%

Reference: patent US6169104A, “Di-aryl ethers and their derivatives as anti-cancer agents” (Large Scale Biology Corporation, priority 1998, dated 2001)
